Source: US9669005B2, “Use of naringenin in preparing drugs for preventing and/or treatment abdominal aortic aneurysm” (priority 2013, dated 2017)

What was measured:
Assay type in all cases: in vivo
[1] = test system: formed arterial aneurysms in CaPO4 daubed C57 mice; experiment: Formed abdominal aortic aneurysms, CaPO4 model, naringenin gavage from 7 days after daubing
Description: In CaPO4 model, we daubed CaPO4 at infrarenal abdominal aortas in 12-week old of male C57 mice (totally 36 mice), and arterial aneurysms were formed 7 days later. Next, the 36 mice were randomly divided into 2 groups: one group was given naringenin (50 mg/kg/day) gavage, and another group was given equal water gavage. Gavage was performed for 2 weeks (8 mice for each group) and 4 weeks (10 mice for each group), respectively.

NMP-9 and NMP-2 = experiment: Gelatin zymography, angiotensin II model; details: AngII ApoE-/- mice; naringenin gavage; FIG. 8B
Description: After extravasated blood in fresh removed blood vessels of infrarenal site in abdominal aortas of mice were cleared, and fat and connective tissues were removed, and blood vessels were cut into 1 cm ring, and put into 24-well plate. Blood vessels were cultured for 24 hours using 0.5 ml serum-free medium with high glucose. After the cultured supernatant protein was quantified, mercaptoethanol-free protein sample loading buffer was added, cryopreserved at −80° C. Water was used to prepare gelatin (Sigma-Aldrich, St. Louis, Mo.) into a concentration of 10 mg/ml, which was added to separation gel of protein electrophoresis according to the proportion of 1:10, causing the final concentration of gelatin as 1 mg/ml. Electrophoresis was performed in a voltage of 80V at 4° C. The gel was put into 0.25% Trixon-100 solution, and washing was performed twice in 30 minutes. […] Incubated gel was put into Coomassie brilliant blue to stain for 1-2 hours at room temperature, washed for 30 minutes with a solution having 30% methanol and 10% glacial acetic acid, a solution having 20% methanol and 10% glacial acetic acid, and a solution having 10% methanol and 5% glacial acetic acid, respectively, and then analyzed with Odyssey infrared fluorescence scanning system (LI-COR Biosciences, Lincoln, Nebr.). […]

[2] = test system: IL-6, MCP-1, IL-10, TNF-α and IFN-γ in plasma; experiment: Inflammatory factors in plasma by flow kit, angiotensin II model; details: AngII ApoE-/- mice, naringenin gavage, FIG. 7B
Description: Eyeballs of mice were removed and blood was drawn, 20 μl of heparin was added into the blood, after centrifuged at 6000 rotations and 4[…] for 10 minutes, the supernatant was aspirated. 10 μl of supernatant was taken, and 10 μl of beads were added, and then 10 μl of PE was added, washed twice with lotion after incubating for 2 hours at room temperature, and then 200 μl of lotion is added. Sorting was performed in the manner of up-flowing after blending (wherein, the flow kits of inflammatory factors of mice were purchased from BD Company).

matrix metalloproteinase = experiment: In situ zymography, CaPO4 model; details: CaPO4 daubed mice; FIG. 4A
Description: (§1) After the aortas of mice were perfused with PBS, fresh tissue was directly embedded with OCT, put in liquid nitrogen for freezing, and then continuously sliced. Firstly, washing was performed with PBS for 3 min, thrice. A fluorescently labeled DQ-gelation-FITC substrate (Sigma-Aldrich, St. Louis, Mo.) was incubated 1 hour at 37° C. Under normal circumstances, fluorescent label for the substrate was packaged, so there is no fluorescence; after activated gelatinase degraded gelatin, green fluorescent label would be exposed. After the section was incubated, washing was performed with PBS for 3 min, thrice, and then the section was sealed. Immunofluorescence confocal microscopy was used to irradiate. The stronger fluorescence was, which means, the stronger activity of matrix metalloproteinase was.

metalloproteinase = experiment: In situ zymography, angiotensin II model; details: AngII ApoE-/- mice; naringenin gavage; FIG. 8A
Description: as §1

IL-6 and MCP-1 = experiment: Immunofluorescent staining of IL-6 and MCP-1 in vascular walls, angiotensin II model; details: AngII ApoE-/- mice; naringenin gavage; immunofluorescence; FIG. 7C
Description: In order to illustrate the mechanism by which naringenin reduces inflammatory reaction of abdominal aorta vascular walls of mice, immunofluorescent staining was performed on IL-6 and MCP-1 by continuous sections to analyze their distributions and expressions in vascular walls.

[3] = Body weight and blood fat of CaPO4 treated C57BL/6J mice
Description: Gavage was started at the first day after surgery, and water, naringenin (50 mg/kg) (Sigma-Aldrich, St. Louis, Mo.) or doxycycline (100 mg/kg) (Sigma-Aldrich, St. Louis, Mo.) gavage were given on mice daily. Materials were removed from the mice 7 days after gavage. Mice were weighed, and blood was drawn from inner canthus by capillary, after centrifuged for 10 minutes at 6000 rotations, the supernatant was removed and blood fat was measured (kit is purchased from BIOSINO company). Then perfusion and washing were performed on mice using PBS. Blood vessels were separated, and four blood vessels were randomly chosen for each group for photographing. The results were shown in FIG. 1, wherein, NaCl was the group of daubing NaCl (n=11), CaPO4 was the group of daubing CaPO4 plus water feed (n=12), CaPO4+NGN was the group of daubing CaPO4 μlus naringenin gavage (n=11), and CaPO4+Dox was the group of daubing CaPO4 μlus doxycycline gavage (n=11).

[4] = test system: macrophages and leukocytes in adventitia in vascular walls; experiment: Immunohistochemical staining of inflammatory cells (Mac3, CD45) in vascular walls, CaPO4 model; details: CaPO4 daubed mice, FIG. 3A
From the text: In the onset of abdominal aortic aneurysm, inflammatory cell infiltration of vascular walls is a common feature. We used histochemical staining to identify inflammatory cells infiltrated in vascular walls. Mac3 is the result of immumohistochemical staining on anti-Mac3 specific antibody, representative of macrophage, and CD45 is the result of immumohistochemical staining on anti-CD45 specific antibody, representative of leukocyte.

[5] = CaPO4 treated C57BL/6J mice, gavage 7 days, naringenin 50 mg/kg, doxycycline 100 mg/kg

For `O=C1C[C@@H](c2ccc(O)cc2)Oc2cc(O)cc(O)c21` [naringenin], the “average diameter of infrarenal abdominal aortas (ex vivo)” value ([1]; aneurysms formed 7 days after CaPO4, naringenin 50 mg/kg/day gavage 2 weeks, control 1.488±0.42, P<0.05) was 0.884±0.33 mm, the “average diameter of infrarenal abdominal aortas (ex vivo)” value ([1]; aneurysms formed 7 days after CaPO4, naringenin 50 mg/kg/day gavage 4 weeks, control 1.718±0.64, P<0.05) was 0.9935±0.5 mm and the “active form of NMP-9 and NMP-2 (gelatin zymography)” value (NMP-9 and NMP-2) was “do not change significantly”. For the same compound, the “zymogen form of MMP-9 (gelatin zymography)” value (NMP-9 and NMP-2) was “significantly decreases”, the IL-10 in plasma [2] was “does not change significantly” and the “TNF-α and IFN-γ in plasma” value [2] was “do not change”. For the same compound, the “levels of IL-6 and MCP-1 in plasma” value ([2]; n=11, P<0.05) was “significantly decrease”, the “activity of matrix metalloproteinase (in situ zymography)” value (matrix metalloproteinase) was “reduce the activity of matrix metalloproteinase induced by CaPO4 daubing” and the “activated metalloproteinase (in situ zymography)” value (metalloproteinase) was “significantly decreases”. For the same compound, the “production of IL-6 and MCP-1 in vascular walls” value (IL-6 and MCP-1) was “significantly decreases”, the “body weights and blood fat levels” value ([3]; C57BL/6J mice, naringenin gavage 50 mg/kg, 7 days) was “does not affect” and the Body weight [3, 5] was 20.1 ± 1.41 g. The Cholesterol [3, 5] was 3.53 ± 0.45 mmol, the Triglyceride [3, 5] was 0.97 ± 0.22 mmol and the “infiltration of macrophages and leukocytes in adventitia in vascular walls” value [4] was “reduce such effect”.
